These results are taken from patent publication US8889840B2, “Vascular leakage inhibitor” (Industry-Academic Cooperation Foundation, Yonsei University, priority 2009, dated 2014).

For experiment [1], the system named is human retinal endothelial cells (HRECs). Nature of the experiment: Serum depletion-induced apoptosis of HRECs, MTT assay and cell morphology. It counts as cell-based. Particulars: serum-free medium, 0.1-10 μg/mL. As to the method: HRECs (3×10^4 cells/well) were seeded on a 24-well plate in M199 medium containing 20% fetal bovine serum. The next day, the cells were transferred to a medium containing […] Sac0601 (FIG. 4a) or 0.1-10 μg/mL Sac0504 (FIG. 4b). Cell viability was determined by MTT assay 48 hours later. FIGS. 5a-5c show the result of observing cell morphologies.
Human umbilical vein endothelial cells (HUVECs) and human retinal endothelial cells (HRECs) purchased from Cell Systems (USA) were seeded on a 100-mm culture dish in M199 medium (Life Technologies, USA) containing 20% (w/v) fetal bovine serum (FBS, HyClone, Canada), 100 units/mL penicillin (Invitrogen, USA), 100 μg/mL streptomycin (invitrogen, USA), 3 ng/mL basic fibroblast growth factor (bFGF, Upstate Biotechnology, USA) and 5 units/mL heparin and cultured in a 5% CO2 incubator at 37° C.
Also, HRECs were treated with the compounds synthesized in Synthesis Example 5 and MIT assay was performed 48 hours later in the same manner as described above.
Also, the acid compound wherein the methyl ester formed by the introduction of the ester group was hydrolyzed was synthesized to provide improved water solubility and activity. MYT assay was performed for the compounds synthesized in Synthesis Example 6 in the same manner as described above 48 hours after treatment.
Their ability of inhibiting apoptosis was confirmed again for HRECs. HRECs (3×10^4 cells/well) were seeded on a 24-well plate in M199 medium (1 mL) containing 20% fetal bovine serum, Next day, the cells were transferred to serum-free M199 medium containing 0.1-10 μg/ml. Sac060.1 (FIG. 4a) or 0.1-10 μg; mL Sac0504 (FIG. 4b). Cell viability was determined by MTF assay in the same manner as in Test Example 1.
Their ability of inhibiting apoptosis was confirmed again for HRECs.
A general note: Tetrazolium assays rely on reduction of a dye to a coloured formazan, in cell work by metabolically active cells.

Experiment [2] concerns HRECs. As to the kind of experiment: Restoration of TJ instability and cytoskeleton change induced by VEGF in HRECs. Type of experiment: cell-based, human. Conditions: 20 ng/mL VEGF 1 hour, then 10 μg/mL 1 hour. Here is the method:
In FIGS. 9a-9b, confluent HRECs were stimulated with 20 ng/mL VEGF (1 hr) before treating with Sac0504 and Sac0601. The cells were then stained with anti-occludin antibody (FIG. 9a) and rhodamine phalloidin (FIG. 9b).
Confluent HRECs were treated with 20 ng/mL. VEGF for 1 hour and then with 10 μg/mL Sac0601 or Sac0504 for 1 hour. Subsequently, the cells were stained with anti-occludin antibody (FIG. 9a) or […] (FIG. 9b) as described above.

In experiment [3] the test system is HRECs. Nature of the experiment: Permeability of HRECs on transwell filter, labelled sucrose. Type of experiment: cell-based, human. Particulars: 10 μg/mL 60 minutes, with or without 20 ng/mL VEGF. As to the method:
HRECs were seeded on a transwell filter. After reaching confluency, the cells were pretreated with Sac0601 (FIG. 10a) and Sac0504 (FIG. 10b) for 60 minutes before treating with 20 ng/ml. VEGF (1 hr). The permeability of HRECs was determined by measuring radiation of […] (1 μCi/μL) diffused below the transwell using a liquid scintillation counter.
The effect of Sac0601 and Sac0504 on vascular permeability was analyzed. HRECs were seeded on a transwell filter (Corning Costar). After reaching confluency, the cells were cultured in M199 medium containing 1% FBS for 3 hours and treated with 10 μg/mL. Sac0601 (FIG. 10a) or Sac0504 (FIG. 10b) for 60 minutes, with or without pretreatment with 20 ng/mL VEGF for 60 minutes. Then, [^3H]sucrose (1 μCi [0.037 MBq.]/μL or 50 μL (0.8 μCi [0.0296 MBq])/mL, Amersham Pharmacia) were added. 30 minutes later, radiation diffused below the transwell was measured using a liquid scintillation counter (Wallac, PerkinElmer). Measurement was made at least four locations.

In experiment [4] the test system is HRECs. As to the kind of experiment: DNA fragmentation in serum-depleted HRECs. It counts as cell-based, human. Particulars: serum-free medium, 0.1-10 μg/mL, 48 hours. As to the method:
HRECs (3×10^4 cells/well) were seeded on a 24-well plate in M199 medium containing 20% fetal bovine serum. The next day, the cells were transferred to a medium containing 0.1-10 μg/mL Sac0601 (FIG. 6a) or 0.1-10 μg/mL Sac0504 (FIG. 6b). DNA fragmentation was analyzed by TUNEL assay 48 hours later.
In addition, chromosomal fragmentation and nicking characteristic of apoptosis were monitored, HRECs (3×10^4 cells/well) were seeded on a 24-well plate in M199 medium (1 mL) containing 20% fetal bovine serum, Next day, the cells were transferred to serum-free M199 medium containing 0.1-10 μg/mL Sac0601 (FIG. 6a) or 0.1-10 μg/mL Sac0504 (FIG. 6b). 48 hours later, the cells were washed twice with PBS, fixed with 2% paraformaldehyde, and washed twice with PBS again, After adding 4′,6-diamidino-2-phenylindole-2HCl (DAPI; Calbiochem, USA) solution and reacting for 30 minutes in the dark, the cells were washed twice with PBS and degree of DNA fragmentation was observed under an optical microscope after covering with a cover glass.

Experiment [5] deals with HRECs. Nature of the experiment: VEGF-induced actin stress fibers in HRECs, rhodamine phalloidin staining. It counts as cell-based, human. Conditions: 10 μg/mL 1 hour, then 20 ng/mL VEGF 1 hour. Here is the method:
Confluent HRECs were treated with 10 μg/mL Sac0601 or Sac0504 for 1 hour and then with 20 ng/mL VEGF for 1 hour. Subsequently, the cells were fixed at room temperature for 20 minutes with 4% paraformaldehyde and washed 3 times with PBS (pH 7.4). Then, the cells were permeabilized with 0.1% Triton X-100/PBS and reacted with 0.1 mg/mL rhodamine phalloidin (Molecular Probes) for 1 hour. Then, the cells were observed under a fluorescence microscope (Olympus). […] The analysis of actin cytoskeleton was conducted also for the compounds synthesized in Synthesis Example 5. Both Sac0904 and Sac0902 exerted effects in a concentration-dependent manner on the actin cytoskeleton which is closely related with vascular permeability (FIG. 7c).

With `CC(=O)OCC1OC(OC2CCC3(C)C(=CCC4C3CCC3(C)C(C(C)CCCC(C)C)CCC43)C2)C=CC1OC(C)=O` (stereo not drawn) [Sac0601], in experiment [1], the “ability of protecting retinal vascular endothelial cells from apoptosis induced by the removal of serum (MTT)” value was “have the ability of protecting the retinal vascular endothelial cells from apoptosis”. Moreover, the “change in actin structure and TJ stability at the cell-cell contacts induced by VEGF” value in the experiment on HRECs [2] is on record as “can be restored”. Also, the “permeability of the vascular endothelial cells” value in the experiment with HRECs [3] was “inhibiting permeability of the vascular endothelial cells”. Further, in the experiment on HRECs [4], the DNA fragmentation result was “inhibit DNA fragmentation”. Further, in the experiment with HRECs [5], the “formation of actin stress fibers induced by VEGF” value is “inhibited the formation of actin stress fibers induced by VEGF” and the “formation of cortical actin ring structures” value is given as “increased the formation of cortical actin ring structures”.

Take `CC(C)CCC[C@@H](C)[C@H]1CC[C@H]2[C@@H]3CC=C4C[C@@H](OC5CCCCO5)CC[C@]4(C)[C@H]3CC[C@]12C` (stereo partly drawn) [Sac0504]: the “ability of protecting retinal vascular endothelial cells from apoptosis induced by the removal of serum (MTT)” value in experiment [1] is listed as “have the ability of protecting the retinal vascular endothelial cells from apoptosis”. Further, the “change in actin structure and TJ stability at the cell-cell contacts induced by VEGF” value with HRECs [2] is given as “can be restored”. Further, the “permeability of the vascular endothelial cells” value with HRECs [3] is “inhibiting permeability of the vascular endothelial cells”. For the same compound, the DNA fragmentation entry in the experiment on HRECs [4] is given as “inhibit DNA fragmentation”. Moreover, in the experiment with HRECs [5], the “formation of actin stress fibers induced by VEGF” value is “inhibited the formation of actin stress fibers induced by VEGF” and the “formation of cortical actin ring structures” value was “increased the formation of cortical actin ring structures”.
